This note sets out measurements from patent US8642623B2, “Vanilloid receptor ligand compounds, pharmaceutical compositions containing them, a method of producing them and the use thereof to treat pain and various other conditions” (Gruenenthal GmbH, priority 2007, dated 2014).

Format in all cases: cell-based
Assay [1] addresses vanilloid receptor 1 (VR1/TRPV1 receptor) (Homo sapiens, UniProt Q8NER1). Put plainly: Human VR1/TRPV1 receptor inhibition after pH stimulus. To be noted: for inhibition at 5 µM: compound 5 μM; for inhibition at 10 µM: compound 10 μM.
The target in assay [2] is T1, vanilloid receptor 1 (VR1/TRPV1) of the rat species (Rattus norvegicus, UniProt O35433).
T1 construct: The spinal column is removed from decapitated rats; from tissue; host or cells: primary cells from rat dorsal root ganglia (DRG)
The assay can be described thus: FLIPR Ca2+ influx assay on rat dorsal root ganglia cells, capsaicin stimulus (Pharmacological method I). To be noted: capsaicin 100 nM stimulus, Ki from IC50 by Cheng-Prusoff. As for the experimental part: The agonistic or antagonistic action of the substances to be investigated on the vanilloid receptor 1 (VR1/TRPV1) of the rat species may be determined with the following assay. According to this assay, the influx of Ca^2+ through the receptor channel is quantified with the assistance of a Ca^2+-sensitive dye (type Fluo-4, Molecular Probes Europe BV, Leiden, Netherlands) in a Fluorescent Imaging Plate Reader (FLIPR, Molecular Devices, Sunnyvale, USA).
Complete medium: 50 mL HAMS F12 Nutrient Mixture (Gibco Invitrogen GmbH, Karlsruhe, Germany) with 10 vol. % FCS (foetal calf serum, Gibco Invitrogen GmbH, Karlsruhe, Germany, heat-inactivated);
Cell culture plate: poly-D-lysine-coated, black 96-hole plates with clear base (96 well black/clear plate, BD Biosciences, Heidelberg, Germany) are additionally coated with laminin (Gibco Invitrogen GmbH, Karlsruhe, Germany), by diluting laminin to a concentration of 100 μg/mL with PBS (Ca—Mg-free PBS, Gibco Invitrogen GmbH, Karlsruhe, Germany). Aliquots with a concentration of 100 μg/mL of laminin are taken and stored at −20° C. The aliquots are diluted with PBS in the ratio of 1:10 to 10 μg/mL of laminin and 50 μL of the solution is pipetted into each well of the cell culture plate. The cell culture plates are incubated for at least two hours at 37° C., the supernatant solution is aspirated and the wells are each washed twice with PBS. The coated cell culture plates are stored with supernatant PBS and this is only removed directly prior to introduction of the cells.
The spinal column is removed from decapitated rats and this is placed directly in cold HBSS buffer (Hank's buffered saline solution, Gibco Invitrogen GmbH, Karlsruhe, Germany), i.e. located in an ice bath, combined with 1 vol. % (percent by volume) of an AA solution (antibiotic/antimycotic solution, PAA, Pasching, Austria). The spinal column is severed lengthwise and removed from the spinal canal together with fasciae. The dorsal root ganglia (DRGs) are then removed and in turn stored in cold HBSS buffer combined with 1 vol. % of an AA solution. The DRGs, from which blood residues and spinal nerves have been completely removed, are in each case transferred into 500 μL cold collagenase type 2 (PAA, Pasching, Austria) and incubated for 35 minutes at 37° C. After the addition of 2.5 vol. % trypsin (PAA, Pasching, Austria) incubation at 37° C. is continued for a further 10 minutes. After complete incubation, the enzyme solution is carefully pipetted off and the remaining DRGs are combined in each case with 500 μL of complete medium.
The DRGs are in each case repeatedly suspended, drawn through cannulas no. 1, no. 12 and no. 16 by means of a syringe and transferred into 50 mL Falcon microtubes, these being filled to 15 mL with complete medium. The content of each Falcon microtube is in each case filtered through a 70 μm Falcon filter insert and centrifuged for 10 minutes at 1200 revolutions and room temperature. The resultant pellet is in each case redissolved in 250 μL of complete medium and the cell count is determined.
The number of cells in the suspension is adjusted to 3×10^5 per mL and a 150 μL portion of this suspension is in each case placed in a well of the cell culture plates which have been coated as described above. The plates are left to stand in the incubator for two to three days at 37° C., 5 vol. % CO2 and 95% relative atmospheric humidity.
The cells are then loaded with 2 μM Fluo-4 and 0.01 vol. % Pluronic F127 (Molecular Probes Europe BV, Leiden, Netherlands) in HBSS buffer (Hank's buffered saline solution, Gibco Invitrogen GmbH, Karlsruhe, Germany) for 30 min at 37° C., washed 3×with HBSS buffer and, after a further 15 minutes' incubation at room temperature, used for Ca^2+ measurement in the FLIPR assay. Ca^2+-dependent fluorescence is here measured before and after the addition of substances (λex=488 nm, λem=540 nm). […]

For assay [3], the target named is T2, vanilloid receptor (VR1) (Homo sapiens, UniProt Q8NER1).
T2 construct: expressed in transfected cells; host or cells: CHO K1 cells (ECACC), stably transfected
The assay can be described thus: FLIPR Ca2+ influx assay with CHO K1 cells transfected with the human VR1 gene, capsaicin stimulus (Pharmacological method II). The settings on record: capsaicin 100 nM stimulus, Ki from IC50 by Cheng-Prusoff. As for the experimental part: In addition, compounds according to the invention of the general formulae I, Ia, Ib, I′, I″, I′″ may be preferred which, in a FLIPR assay with CHO K1 cells which have been transfected with the human gene VR1, in a concentration of less than 2000 nM, preferably of less than 1000 nM, particularly preferably of less then 300 nM, very particularly preferably of less than 100 nM, still more preferably of less than 75 nM, further preferably of less than 50 nM, most preferably of less than 10 nM, bring about 50% displacement of capsaicin which is present in a concentration of 100 nM.
In this FLIPR assay, the influx of Ca^2+ is quantified with the assistance of a Ca^2+-sensitive dye (type Fluo-4, Molecular Probes Europe BV, Leiden, Netherlands) in a Fluorescent Imaging Plate Reader (FLIPR, Molecular Devices, Sunnyvale, USA) as described below.
The agonistic or antagonistic action of the substances to be investigated on the vanilloid receptor (VR1) may also be determined with the following assay. According to this assay, the influx of Ca^2+ through the channel is quantified with the assistance of a Ca^2+-sensitive dye (type Fluo-4, Molecular Probes Europe BV, Leiden, Netherlands) in a Fluorescent Imaging Plate Reader (FLIPR, Molecular Devices, Sunnyvale, USA).
Chinese hamster ovary cells (CHO K1 cells, European Collection of Cell Cultures (ECACC), Great Britain) are stably transfected with the VR1 gene. For functional investigations, these cells are plated out onto poly-D-lysine-coated, black 96-hole plates with a clear base (BD Biosciences, Heidelberg, Germany) at a density of 25,000 cells/hole. The cells are incubated overnight at 37° C. and 5% CO2 in a culture medium (Ham's Nutrient Mixture F12, 10 vol. % FCS (foetal calf serum), 18 μg/mL L-proline). On the following day, the cells are incubated with Fluo-4 (Fluo-4 2 μM, Pluronic F127 0.01 vol. %, Molecular Probes in HBSS (Hank's buffered saline solution), Gibco Invitrogen GmbH, Karlsruhe, Germany) for 30 minutes at 37° C. The plates are then washed 3 times with HBSS buffer and, after a further 15 minutes' incubation at room temperature, used for Ca^2+ measurement in the FLIPR. Ca^2+-dependent fluorescence is here measured before and after the addition of the substances to be investigated (wavelength λex=488 nm, λem=540 nm). Quantification proceeds by measuring the highest fluorescence intensity (FC, fluorescence counts) over time.
The FLIPR protocol consists of 2 additions of substance. The substances to be tested (10 μM) are firstly pipetted onto the cells and Ca^2+ influx is compared with the control (capsaicin 10 μM) (% activation relative to the Ca^2+ signal after addition of 10 μM of capsaicin). After 5 minutes' incubation, 100 nM of capsaicin are added and the influx of Ca^2+ is likewise determined.
The percentage inhibition in comparison with the maximum achievable inhibition with 10 μM capsaicin is calculated.
On the basis of the percentage displacement by different concentrations of the compounds to be tested of the general formula I, IC50 inhibition concentrations which bring about 50% displacement of capsaicin were calculated. Ki values for the test substances were obtained by conversion using the Cheng-Prusoff equation (Cheng, Prusoff; Biochem. Pharmacol. 22, 3099-3108, 1973).

vanilloid receptor 1 (VR1/TRPV1 receptor), sequence (Q8NER1 whole entry): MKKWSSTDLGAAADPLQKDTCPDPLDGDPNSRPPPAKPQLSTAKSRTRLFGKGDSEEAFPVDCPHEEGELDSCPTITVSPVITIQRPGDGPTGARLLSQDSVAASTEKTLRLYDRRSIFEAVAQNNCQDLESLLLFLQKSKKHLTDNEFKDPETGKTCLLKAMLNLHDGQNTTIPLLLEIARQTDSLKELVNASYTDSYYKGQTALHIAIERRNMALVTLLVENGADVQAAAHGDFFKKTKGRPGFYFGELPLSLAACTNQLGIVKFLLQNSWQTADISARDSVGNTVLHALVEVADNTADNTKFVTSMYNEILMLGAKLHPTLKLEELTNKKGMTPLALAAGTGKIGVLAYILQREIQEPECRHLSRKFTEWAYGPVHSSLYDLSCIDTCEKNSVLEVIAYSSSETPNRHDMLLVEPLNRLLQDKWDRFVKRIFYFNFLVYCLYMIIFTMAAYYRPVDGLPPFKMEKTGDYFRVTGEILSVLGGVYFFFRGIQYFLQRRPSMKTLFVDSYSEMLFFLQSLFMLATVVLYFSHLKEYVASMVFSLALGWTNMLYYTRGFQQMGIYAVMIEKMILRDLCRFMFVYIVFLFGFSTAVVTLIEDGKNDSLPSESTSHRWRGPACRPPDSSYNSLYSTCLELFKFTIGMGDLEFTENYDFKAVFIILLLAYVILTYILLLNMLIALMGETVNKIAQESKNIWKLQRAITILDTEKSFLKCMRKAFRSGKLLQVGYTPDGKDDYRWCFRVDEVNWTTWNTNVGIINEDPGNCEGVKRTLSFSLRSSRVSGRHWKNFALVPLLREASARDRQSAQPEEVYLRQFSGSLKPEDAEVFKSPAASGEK
T2 sequence (Q8NER1 whole entry): as above
T1 sequence (O35433 whole entry): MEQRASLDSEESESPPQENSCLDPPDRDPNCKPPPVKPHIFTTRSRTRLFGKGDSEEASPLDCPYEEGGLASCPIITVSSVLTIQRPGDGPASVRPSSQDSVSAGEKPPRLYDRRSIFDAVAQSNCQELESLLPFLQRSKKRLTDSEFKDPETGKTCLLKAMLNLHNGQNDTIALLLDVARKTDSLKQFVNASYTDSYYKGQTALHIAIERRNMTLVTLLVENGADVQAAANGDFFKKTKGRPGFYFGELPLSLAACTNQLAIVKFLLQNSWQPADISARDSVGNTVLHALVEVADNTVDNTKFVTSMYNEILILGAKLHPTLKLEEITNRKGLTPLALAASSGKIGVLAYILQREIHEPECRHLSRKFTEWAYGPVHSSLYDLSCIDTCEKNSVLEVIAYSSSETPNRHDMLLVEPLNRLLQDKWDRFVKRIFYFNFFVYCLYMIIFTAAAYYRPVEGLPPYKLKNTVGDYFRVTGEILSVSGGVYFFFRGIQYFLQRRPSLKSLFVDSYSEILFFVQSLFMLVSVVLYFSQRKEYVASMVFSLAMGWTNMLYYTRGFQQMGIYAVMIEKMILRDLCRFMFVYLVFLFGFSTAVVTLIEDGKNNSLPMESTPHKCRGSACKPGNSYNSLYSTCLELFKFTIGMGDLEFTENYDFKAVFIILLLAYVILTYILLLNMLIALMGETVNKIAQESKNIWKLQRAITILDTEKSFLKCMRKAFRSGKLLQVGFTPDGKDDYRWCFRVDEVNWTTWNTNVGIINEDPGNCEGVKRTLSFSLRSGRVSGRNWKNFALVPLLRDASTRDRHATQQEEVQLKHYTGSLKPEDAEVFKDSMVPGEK

With `CC(C(=O)NCc1ccc(C(F)(F)F)cc1SC1CCCCC1)c1ccc(N(C)S(C)(=O)=O)c(F)c1` (stereo not drawn) [Example 13, N-(2-(cyclohexylthio)-4-(trifluoromethyl)benzyl)-2-(3-fluoro-4-(N-methylmethylsulfonamido)phenyl)propanamide], the “IC50 (human) after pH stimulus” value in assay [1] is recorded as “ne”. Also, the Ki (as a rule, the equilibrium dissociation constant of an inhibitor or competing ligand from its target) amounted to 5.2 nM in assay [2] and 33.1 nM in assay [3].
As for `CC1CCN(c2cc(C(C)(C)C)ccc2CNC(=O)C(C)c2ccc(N(C)S(C)(=O)=O)c(F)c2)CC1` (stereo not drawn) [Example 14, N-(4-tert.-butyl-2-(4-methylpiperidin-1-yl)benzyl)-2-(3-fluoro-4-(N-methylmethylsulfonamido)phenyl)propanamide], in assay [1], the inhibition – broadly, the drop in the measured response relative to a control, in per cent – at 5 µM worked out at 9% and the inhibition at 10 µM amounted to 43%. Affinity in assay [2] was put at a Ki of 3 nM. The affinity in assay [3], expressed as Ki, was 13.1 nM.
`CC(C(=O)NCc1ccc(C(C)(C)C)cc1SC1CCCCC1)c1ccc(N(C)S(C)(=O)=O)c(F)c1` (stereo not drawn) [Example 15, N-(4-tert.-butyl-2-(cyclohexylthio)benzyl)-2-(3-fluoro-4-(N-methylmethylsulfonamido)phenyl)propanamide]: the inhibition at 1 µM in assay [1] (compound 1 μM) was determined as 0%. Further, in assay [1], the inhibition at 5 µM was 6% and testing at 10 µM gave an inhibition of 30%. The affinity in assay [2], expressed as Ki, was 7.6 nM. Further, affinity in assay [3] was put at a Ki of 18.3 nM.
